The values that follow come from patent US20250346938A1, “ATP-DEPENDENT C-TERMINAL MODIFICATION OF POLYPEPTIDES” (Wisconsin Alumni Research Foundation, priority 2024, published 2025).

Ends that are not written are not given here.

One data set relates to HsM ccB. Kind of data set: H. somni MccB-catalyzed peptide thioester synthesis. It counts as biochemical. The conditions noted are these: for thioesterification: Mesna as thiol donor. On the procedure:
Reactions were incubated for 16 hours at room temperature and quenched with addition of an equivalent volume of 0.6% TFA. […] To screen the ability of H. somni M ccB to catalyze thioesterification of HsLACE peptides, reactions contained M ccB ([…]), ATP (5 mM), M gCl2 (5 mM), peptide substrate (0.25 mM), 25 mM M esna or AcCysNHM e, and reaction buffer (100 mM HEPES, pH 8.0).
H. somni M ccB-catalyzed peptide thioester synthesis. For screening the activity of HsM ccB on HsTeCH, HsLACE1-4, and LACE substrate peptide, […] reactions were prepared that contained 100 mM HEPES, pH 8.0, HsM ccB ([…]), HsTeCH, HsLACE1-4, or LACE peptide ([…]), ATP (5 mM), M gCl2 (5 mM), and thiol (M esna or AcCysNHMe, 25 mM). Reactions were initiated by addition of HsM ccB and incubated for 16-20 h at room temperature. Raw data are available in the Dryad repository at DOI: 10.5061/dryad.c59zw3rkb.

For data set [1], the system named is M ccB. Kind of data set: Screening nucleophiles for MccB-mediated modification of MccA-N7G (LC-TOF MS). The format is biochemical, E. coli. As to conditions: HPLC-MS. As to the method:
Screening nucleophiles for MccB-mediated ligation of synthetic peptide substrates. Nucleophile were dissolved in water and adjusted to neutral pH using paper pH strips (EM D Millipore). Solutions were stored at −80° C. until further use, unless otherwise noted. M ccA-N7G (250 μM) was incubated with 5 μM MccB, 5 mM ATP, and the corresponding concentration of nucleophile in reaction buffer (25 mM Tris pH 8.0, 10 mM M gCl2). Reactions were incubated for 16 hours at room temperature and quenched with addition of an equivalent volume of 0.6% TFA. […] Extracted ion chromatogram (EIC) peak areas were calculated using Agilent TOF Quantitative Analysis v11.0. Percent conversion of substrate to nucleophile-modified product was calculated using the integrated peak areas from the substrate peptide EIC and production EIC using the formula shown below.

The next data set concerns HpM ccB. Kind of data set: C-terminal thioesterification of MccA-N7G peptides by H. pylori MccB (LC-MS). It counts as biochemical. As to conditions: HpMccB, ATP, Mesna, 16 h.
HpM ccB, sequence (as listed by the source): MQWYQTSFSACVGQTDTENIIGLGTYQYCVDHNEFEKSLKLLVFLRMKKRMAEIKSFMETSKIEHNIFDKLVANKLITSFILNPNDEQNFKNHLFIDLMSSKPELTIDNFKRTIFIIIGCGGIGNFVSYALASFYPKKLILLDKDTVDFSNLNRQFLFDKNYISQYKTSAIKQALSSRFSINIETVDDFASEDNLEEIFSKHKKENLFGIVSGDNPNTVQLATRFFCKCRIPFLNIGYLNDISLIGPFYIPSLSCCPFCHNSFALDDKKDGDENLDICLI
For data set [2], the system named is E. coli M ccB. Nature of the data set: LC-TOF MS analysis of MccB-catalyzed AMPylation of MccA variants. It counts as biochemical. As to conditions: for formation of stably AMPylated product: HPLC-MS assay. On the procedure: LC-TOF MS analysis of M ccB reactions with synthetic peptide substrates. […] Reactions were incubated for 16 hours at room temperature and quenched with addition of an equivalent volume of 0.6% TFA. These reaction conditions were used for M ccBs from E. coli, H. pylori, L. johnsonii, and H. somni.
LC-TOF MS analysis of M ccB-catalyzed N-AM Pylation of M ccA positional scanning peptide library. MccA variants were synthesized individually in-house (according to Solid-phase peptide synthesis) or were purchased from Peptide2.0. […] Reactions were incubated for 16 hours at room temperature and quenched with addition of an equivalent volume of 0.6% TFA. […] Percent conversion was calculated using peak areas from substrate and product EICs. Raw data are available in the Dryad repository at DOI: 10.5061/dryad.c59zw3rkb.

Data set [3] deals with E. coli M ccB. Kind of data set: Enzyme-coupled pyrophosphate (PPi) release assay, E. coli MccB. The format is biochemical. The conditions noted are these: MccA C-terminal variant as substrate for MccB. From the text: FIG. 31. Enzyme-coupled pyrophosphate assay for detection of M ccB-catalyzed pyrophosphate release. M ccB-catalyzes release of pyrophosphate, which is converted to phosphate by inorganic pyrophosphatase (PPiase). Purine nucleoside phosphorylase (PN Pase) uses phosphate as a substrate to convert 2-amino-6-mercapto-7-methylpurine ribonucleoside (M ESG) to ribose 1-phosphate and 2-amino-6-mercapto-7-methylpurine, which absorbs at 360 nm.
Purine nucleoside phosphorylase (PNP)/inorganic pyrophosphate (IP)-coupled kinetic assays. The kinetics of M ccB-catalyzed adenylation were characterized using an enzyme-coupled assay for detecting formation of pyrophosphate EnzCheck Pyrophosphate Assay Kit (Thermo Fisher Scientific) (FIG. 31). To screen M ccB for adenylation activity with C-terminal variants of MccA, 5 μM of the appropriate MccB variant was incubated with 0.25 mM of each M ccA variant in a reaction with 0.25 mM ATP, 5 mM M gCl2, 0.5 U/mL purine nucleoside phosphorylase (PNP), and 0.5 U/mL inorganic pyrophosphatase (IP). To screen E. coli, H. pylori, and L. johnsonii M ccB homologs for adenylation activity with MccA homologs, 5 μM of the appropriate MccB enzyme was incubated with 0.25 mM of each M ccA variant in a reaction with 0.25 mM ATP, 5 mM M gCI2, 0.5 U/mL purine nucleoside phosphorylase (PNP), and 0.5 U/mL inorganic pyrophosphatase (IP). Reactions containing HpM ccA-N7G and LjM ccA-N 7G peptides also contained 5 mM M esna and 5 mM TCEP. To collect steady-state kinetics data for individual peptide substrates, the peptide concentration was varied from 0-600 μM in a reaction with 5 μM MccB, 0.25 mM ATP, 5 mM MgCl2, 0.5 U/mL purine nucleoside phosphorylase (PNP), and 0.5 U/mL inorganic pyrophosphatase (IP). […] We therefore repeated measurements for the MccA-N7G peptide using an MccB concentration of […] and a substrate concentration range from 0-100 μM. Reactions were initiated with the addition of M ccB and absorbance at 360 nm was monitored using a Tecan Infinite M 200 plate reader. Initial rates of pyrophosphate production were calculated based on the initial rate of absorbance change and the resulting purine analog extinction coefficient (11,000 M-1 cm-1). Reactions were carried out in triplicate and data analysis was performed using GraphPad Prism 10.

For data set [4], the system named is M ccB. Kind of data set: MccB-catalyzed C-terminal thioesterification / Cys ligation of TeCH-tag fusion proteins (intact protein LC-MS). It counts as biochemical, E. coli. As to conditions: ATP (5 mM), Mesna (5 mM). As to the method:
M ccB-mediated ligation of GFP-MccA-N7G protein substrates. GFP-M ccA-N7G variant (50 μM) was incubated with 5 μM MccB, 5 mM ATP, and the appropriate concentration of cysteine or Mesna/TCEP in reaction buffer (25 mM Tris pH 8.0, 10 mM M gCl2). Reactions were incubated at room temperature for the indicated times. For labeling time course experiments, reactions were quenched with the addition of an equivalent volume of 0.6% TFA.

As for `CNC(=O)[C@H](CS)NC(C)=O` [A cCysNHM e], in the data set on HsM ccB, the “thiol donor for HsMccB-catalyzed thioesterification” value is “poor thiol donor”.
Take `O=C(O)Cc1ccc(S)cc1` [M PAA, 4-mercaptophenylacetic acid]: the “capture of O-AMPylated intermediate / modification of MccA-N7G C terminus by nucleophile” value in the data set with M ccB [1] is “inability”.
The same measure, in the same setting: for `C#CCCNC(=O)c1ccc(CCNN)cc1` [N-(but-3-yn-1-yl)-4-(2-hydrazineylethyl)benzamide] the value was “unable to modify”; for `Cl.NO` [hydroxylamine, hydroxylamine hydrochloride], “efficient capture”; for Cys-Trp, “no modification”.
Consider “LRLRGG (not fully specified (C-terminus))”, for which the thioesterification in the data set on HsM ccB is on record as 18%.
For M KLSY RG (MKLSYRG) [HpM ccA-N7G], the “conversion to C-terminal thioester, yield” value in the data set on HpM ccB was above 97%.
Same read-out and setting: for “MHRIMKN (listed as Lactobacillus johnsonii) [LjM ccA, at b127 probably the N7G variant is meant, reference compound]” the value was 13%.
In the data set with HsM ccB, “MLRLRGG (listed as Histophilus somni) [HsLACE4]” yielded a thioesterification below 1%.
On to “MRTGNAN (listed as Escherichia coli) [wild-type M ccA, reference compound]”, for which the “formation of C-terminally N-AMPylated phosphoramidate product” value in the data set on E. coli M ccB [2] (positional scanning library, 16 h) was “fully converted”.
For “MccA-N7A: E. coli MccA (MRTGNAN) with C-terminal Asn varied to Ala (MRTGNAA)”, the “formation of stably AMPylated product” value in the data set on E. coli M ccB [2] is given as “no stably A M Pylated product was observed”. Besides, the “stimulation of PPi formation” value in the data set on E. coli M ccB [3] is listed as “substantial stimulation”.
In the same order, the values of “MccA-N7S: E. coli MccA (MRTGNAN) with C-terminal Asn varied to Ser (MRTGNAS)” are “no stably A M Pylated product was observed” and “substantial stimulation”.
In the same order, the values of “MccA-N7T: E. coli MccA (MRTGNAN) with C-terminal Asn varied to Thr (MRTGNAT)” are “no stably A M Pylated product was observed” and “substantial stimulation”.

B1: a-GFP rAb (protein)
light: SDIQMTQSPSSLSASVGDRVTITCRASQSVSSAVAWYQQKPGKAPKLLIYSASSLYSGVPSRFSGSRSGTDFTLTISSLQPEDFATYYCQQSWGLITFGQGTKVEIKRTVAAPSVFIFPPSDSQLKSGTASVVCLLNNFYPREAKVQWKVDNALQSGNSQESVTEQDSKDSTYSLSSTLTLSKADYEKHKVYACEVTHQGLSSPVTKSFNRGEC
heavy: EISEVQLVESGGGLVQPGGSLRLSCAASGFNISYYSIHWVRQAPGKGLEWVASIYPYYSSTSYADSVKGRFTISADTSKNTAYLQMNSLRAEDTAVYYCARAGWVASSGMDYWGQGTLVTVSSASTKGPSVFPLAPSSKSTSGGTAALGCLVKDYFPEPVTVSWNSGALTSGVHTFPAVLQSSGLYSLSSVVTVPSSSLGTQTYICNVNHKPSNTKVDKKVEPKSCGGGGGMRTGNAGAFAGAGSK
modifications: non-natural residues; cyclised or stapled
As for B1, the “time to complete conversion to thioester” value in the data set on M ccB [4] is 16 h.

B2: protein L: protein L with C-terminal TeCH-tag (SEQ ID NO: 75) (protein)
chain: MHHHHHHKEETPETPETDSEEEVTIKANLIFANGSTQTAEFKGTFEKATSEAYAYADTLKKDNGEYTVDVADKGYTLNIKFAGKEKTPEEPKEEVTIKANLIYADGKTQTAEFKGTFEEATAEAYRYADALKKDNGEYTVDVADKGYTLNIKFAGKEKTPEEPKEEVTIKANLIYADGKTQTAEFKGTFEEATAEAYRYADLLAKENGKYTVDVADKGYTLNIKFAGKEKTPEEPKEEVTIKANLIYADGKTQTAEFKGTFAEATAEAYRYADLLAKENGKYTADLEDGGYTINIRFAGKKVDEKPEEKEQVTIKENIYFEDGTVQTATFKGTFAEATAEAYRYADLLSKEHGKYTADLEDGGYTINIRFAGGGGSGGGSMRTGNAG
modifications: C-terminal TeCH-tag; Linker and MccB recognition sequence
For the molecule B2, the “time to complete conversion to thioester” value in the data set on M ccB [4] was determined as 16 h.

B3: PTP 1B 1-321: catalytic domain of protein tyrosine phosphatase 1B with TeCH-tag (SEQ ID NO: 76) (protein)
chain: MGHHHHHHDYDIPTTENLYFQGSMEMEKEFEQIDKSGSWAAIYQDIRHEASDFPCRVAKLPKNKNRNRYRDVSPFDHSRIKLHQEDNDYINASLIKMEEAQRSYILTQGPLPNTCGHFWEMVWEQKSRGVVMLNRVMEKGSLKCAQYWPQKEEKEMIFEDTNLKLTLISEDIKSYYTVRQLELENLTTQETREILHFHYTTWPDFGVPESPASFLNFLFKVRESGSLSPEHGPVVVHCSAGIGRSGTFCLADTCLLLMDKRKDPSSVDIKKVLLEMRKFRMGLIQTADQLRFSYLAVIEGAKFIMGDSSVQDQWKELSHEDLEPPPEHIPPPPRPPKRILEPHNGGGGMRTGNAG
modifications: TeCH-tag; N-terminal His tag and TEV protease cleavage site sequence; Linker and MccB recognition sequence
Consider B3, for which the “time to complete conversion to thioester” value with M ccB [4] is on record as 1 h.
